In US7652011B2, “4-[(arylmethyl)aminomethyl]piperidine derivatives, their preparation and their therapeutic application” (sanofi-aventis, priority 2003, dated 2010):

melting point: 104 to 105 °C
Compound: Cn1cccc1CNCC1(c2cccc(C(F)(F)F)c2)CCN(C(=O)CN2CCN(c3cnccn3)CC2)CC1 [Compound 1, [(1-Methyl-1H-pyrrol-2-yl)methyl][[1-[(4-pyrazin-2-ylpiperazin-1-yl)acetyl]-4-[3-(trifluoromethyl)phenyl]piperidin-4-yl]methyl]amine]
